The record followed here is patent US12629358B2, “Compound used as RET kinase inhibitor and application thereof” (TYK MEDICINES, INC., priority 2019, dated 2026).

Molecules are shown by their SMILES. Where a chain is given by its changes, count along the chain named.

wild-type RET kinase, sequence (P07949 29-1114): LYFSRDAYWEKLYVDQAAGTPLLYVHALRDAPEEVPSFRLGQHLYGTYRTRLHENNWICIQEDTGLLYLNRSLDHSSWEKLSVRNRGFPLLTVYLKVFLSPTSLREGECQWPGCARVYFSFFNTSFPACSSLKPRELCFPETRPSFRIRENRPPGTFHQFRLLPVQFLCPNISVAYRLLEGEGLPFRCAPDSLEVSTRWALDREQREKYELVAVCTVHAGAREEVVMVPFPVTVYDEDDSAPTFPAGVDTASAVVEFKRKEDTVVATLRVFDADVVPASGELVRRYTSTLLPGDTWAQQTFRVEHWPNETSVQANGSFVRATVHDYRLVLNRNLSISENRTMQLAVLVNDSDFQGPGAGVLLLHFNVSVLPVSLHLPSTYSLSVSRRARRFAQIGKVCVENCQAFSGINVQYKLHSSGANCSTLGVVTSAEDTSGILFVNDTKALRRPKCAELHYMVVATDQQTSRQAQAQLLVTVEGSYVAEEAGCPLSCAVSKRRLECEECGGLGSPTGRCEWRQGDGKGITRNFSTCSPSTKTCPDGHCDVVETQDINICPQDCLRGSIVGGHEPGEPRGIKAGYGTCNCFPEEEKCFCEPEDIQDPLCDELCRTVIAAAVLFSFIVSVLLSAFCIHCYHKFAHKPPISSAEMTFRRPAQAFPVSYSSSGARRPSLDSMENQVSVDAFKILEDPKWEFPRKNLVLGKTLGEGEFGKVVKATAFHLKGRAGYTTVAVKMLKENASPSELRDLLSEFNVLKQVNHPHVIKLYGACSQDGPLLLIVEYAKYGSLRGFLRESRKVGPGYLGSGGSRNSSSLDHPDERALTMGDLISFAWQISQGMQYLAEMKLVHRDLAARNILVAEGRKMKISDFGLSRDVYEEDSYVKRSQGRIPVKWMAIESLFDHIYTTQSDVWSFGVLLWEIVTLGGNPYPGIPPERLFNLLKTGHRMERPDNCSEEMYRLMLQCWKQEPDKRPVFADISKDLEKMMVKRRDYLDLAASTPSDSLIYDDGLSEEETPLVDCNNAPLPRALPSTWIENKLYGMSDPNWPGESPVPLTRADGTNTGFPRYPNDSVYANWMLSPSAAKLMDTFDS

One assay has as its target wild-type RET kinase (Homo sapiens, UniProt P07949). The assay can be described thus: Enzyme activity test against wild-type RET kinase (33P-ATP filter-binding kinase activity assay). It counts as biochemical. Conditions: ATP Km concentration, 10 concentrations. Here is the method: A biological activity test experiment was conducted below for some compounds of the above Examples and Comparative Example.
[…]. The biological activity screening of the compounds will be determined repeatedly at 10 concentrations.
Each sample was prepared into a solution with a concentration of 10 mM.
The test compound was dissolved in 100% dimethyl sulfoxide to a specific concentration. Integra Viaflo Assist was used to assist DMSO for (continuous) dilution.
Kinase was added to the newly prepared basic reaction buffer
Adding any desired cofactors to the substrate solution.
Adding wild-type RET kinase into the substrate solution and gently mixing;
Acoustic technology (Echo 550; Nanoliter range) was used to feed the compounds in 100% of dimethyl sulfoxide into the kinase reaction mixture and incubated at room temperature for 20 minutes.
33P-ATP (specific activity 10 Ci/l) was added to the reaction mixture to start the reaction.
Incubated at room temperature for 2 hours
Radioactivity was detected by filter-binding method.
Kinase activity data was expressed as the percentage of remaining kinase activity in the test sample compared to the vehicle (dimethyl sulfoxide) reaction. Prism (GRAPHPAD software) was used to obtain IC50 value and curve-fitting.
Regarding `CO[C@]1(C(=O)N[C@@H](C)c2ccc(-n3cc(F)cn3)nc2)CC[C@H](c2nc(Nc3cc(C)[nH]n3)cnc2C#N)CC1` [Compound C13], the IC50 is 2.08 nM.
`CO[C@]1(C(=O)N[C@@H](C)c2ccc(-n3cc(F)cn3)nc2)CC[C@@H](c2nc(Nc3cc(C)[nH]n3)cc(C)c2C#N)CC1` [Compound C16]: the IC50 was found to be 180 nM.
Still for that read-out and setting: to `CO[C@]1(C(=O)N[C@@H](C)c2ccc(-n3cc(F)cn3)nc2)CC[C@H](c2nc(Nc3cc(C)[nH]n3)cc(C)c2C#N)CC1` [Compound C17] belongs 1.26 nM; to `CO[C@]1(C(=O)N[C@@H](C)c2ccc(-n3cc(F)cn3)nc2)CC[C@H](c2nc(Nc3cc(C)[nH]n3)cc3c2C(=O)NCC3)CC1` [Compound C18], 1.52 nM.
On the same count and under the same terms, as for `CO[C@]1(C(=O)N[C@@H](C)c2ccc(-n3cc(F)cn3)nc2)CC[C@@H](c2nc(Nc3cc(C)[nH]n3)cc3c2C(=O)NCC3)CC1` [Compound C19], the figure is 64.7 nM.

A further assay addresses T1, Ba/F3-KIF5B-RET cells (Homo sapiens, UniProt P07949).
T1 construct: host or cells: Ba/F3 (BaF3 from RIKEN BRC CELL BANK); the other entry of the earlier key: KIF5B (P33176, Kinesin-1 heavy chain)
T1 sequence (P07949 713-1063 limits assumed): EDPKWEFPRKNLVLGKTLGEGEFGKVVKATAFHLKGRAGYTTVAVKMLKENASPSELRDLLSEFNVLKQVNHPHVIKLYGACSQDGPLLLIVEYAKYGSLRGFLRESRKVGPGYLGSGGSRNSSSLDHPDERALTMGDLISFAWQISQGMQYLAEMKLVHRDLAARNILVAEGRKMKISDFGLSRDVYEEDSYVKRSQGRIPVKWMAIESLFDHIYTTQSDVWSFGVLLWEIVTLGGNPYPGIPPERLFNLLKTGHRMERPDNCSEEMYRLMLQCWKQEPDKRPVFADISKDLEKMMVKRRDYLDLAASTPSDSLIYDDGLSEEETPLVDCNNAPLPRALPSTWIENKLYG
The assay is described as follows: Cell anti-proliferation experiment (CellTiter-Glo), Ba/F3-KIF5B-RET. It counts as cell-based. The conditions noted are these: cell viability, 72 h. Here is the method: (§1) Ba/F3-KIF5B-RET, Ba/F3-KIF5B-RET-V804L and Ba/F3-KIF5B-RET-V804M cells were constructed by PreceDo Pharmaceuticals Co., Ltd.
(§2) Ba/F3-KIF5B-RET, Ba/F3-KIF5B-RET-V804L and Ba/F3-KIF5B-RET-V804M medium: RPMI-1640+10% FBS+1% P/S.
(§3) A 1000× solution of the compound was prepared with DMSO, the compound was diluted to 20 times final concentration with a growth medium, and […] was added.
(§4) The suspended cells were rotated downward, resuscitated in the growth medium, and then counted with a cell counter. The cell suspension was diluted to the desired concentration in the growth medium. 95p L cell suspension was fed to a 96-well plate. 5 μL of 20× compound was added to the […], and the final DMSO concentration per well was 0.1%; incubated at 37° C. with 5% CO2 for 72 h
(§5) The plate was equilibrated to room temperature before measurement, 50 μl of CellTiter-Glo® reagent was added into each well, mixed on a shaker for 2 minutes, incubated at room temperature for 10 minutes, and recorded with Paradigm.
(§6) Cell viability was analyzed using Graphpad 7.0 software according to the formula Cell viability (CV %)=(RLU compound−RLU blank)/(RLU control−RLU blank)*100%, and the corresponding IC50 data were calculated as shown in Table 2
In turn, `CO[C@]1(C(=O)N[C@@H](C)c2ccc(-n3cc(F)cn3)nc2)CC[C@H](c2nc(Nc3cc(C)[nH]n3)cc3nccnc32)CC1` [Compound C14] yielded an IC50 of 54.1 nM.
The same measure, in the same setting: as for `CO[C@]1(C(=O)N[C@@H](C)c2ccc(-n3cc(F)cn3)nc2)CC[C@H](c2nc(Nc3cc(C)[nH]n3)c3ccccc3n2)CC1` [Compound C15], the figure is 4.6 nM; as for `CO[C@]1(C(=O)N[C@@H](C)c2ccc(-n3cnc(Cl)n3)nc2)CC[C@H](c2nc(Nc3cc(C)[nH]n3)cc3cccnc32)CC1` [Compound C24], 95.1 nM; as for `CO[C@]1(C(=O)N[C@@H](C)c2cnc(-n3cc(F)cn3)cn2)CC[C@H](c2nc(Nc3cc(C)[nH]n3)cc3cccnc32)CC1` [Compound C26], 5.2 nM.
The same measure, in the same setting: as for `CO[C@]1(C(=O)N[C@@H](C)c2ccc(-n3cc(F)cn3)nn2)CC[C@H](c2nc(Nc3cc(C)[nH]n3)cc3cccnc32)CC1` [Compound C27], the figure is 29.4 nM; as for `CO[C@]1(C(=O)N[C@@H](C)c2ccc(-n3cnc(C)n3)nc2)CC[C@H](c2nc(Nc3cc(C)[nH]n3)cc3cccnc32)CC1` [Compound C29], 146 nM.

The next assay has as its target T2, Ba/F3-KIF5B-RET-V804L cells (Homo sapiens, UniProt P07949, V804L).
T2 construct: host or cells: Ba/F3 (BaF3 from RIKEN BRC CELL BANK); the other entry of the earlier key: KIF5B (P33176, Kinesin-1 heavy chain)
T2 sequence (P07949 713-1063 V804L limits assumed): T1 sequence (P07949 713-1063 limits assumed) with V92L
The assay is described as follows: Cell anti-proliferation experiment (CellTiter-Glo), Ba/F3-KIF5B-RET-V804L. It counts as cell-based. Conditions: cell viability, 72 h. Here is the method: as §1, §2, §3, §4, §5, §6
In the case of `CO[C@]1(C(=O)N[C@@H](C)c2ccc(-n3cc(F)cn3)nc2)CC[C@H](c2nc(Nc3cc(C)[nH]n3)cc3nccnc32)CC1` [Compound C14], the IC50 amounted to 46.8 nM.
Still for that read-out and setting: as for `CO[C@]1(C(=O)N[C@@H](C)c2ccc(-n3cc(F)cn3)nc2)CC[C@H](c2nc(Nc3cc(C)[nH]n3)c3ccccc3n2)CC1` [Compound C15], the figure is 2.8 nM; as for `CO[C@]1(C(=O)N[C@@H](C)c2ccc(-n3cnc(Cl)n3)nc2)CC[C@H](c2nc(Nc3cc(C)[nH]n3)cc3cccnc32)CC1` [Compound C24], 84 nM.
Same read-out and setting: as for `CO[C@]1(C(=O)N[C@@H](C)c2cnc(-n3cc(F)cn3)cn2)CC[C@H](c2nc(Nc3cc(C)[nH]n3)cc3cccnc32)CC1` [Compound C26], the figure is 2.9 nM.
Same read-out and setting: to `CO[C@]1(C(=O)N[C@@H](C)c2ccc(-n3cc(F)cn3)nn2)CC[C@H](c2nc(Nc3cc(C)[nH]n3)cc3cccnc32)CC1` [Compound C27] belongs 23 nM.
In turn, `CO[C@]1(C(=O)N[C@@H](C)c2ccc(-n3cnc(C)n3)nc2)CC[C@H](c2nc(Nc3cc(C)[nH]n3)cc3cccnc32)CC1` [Compound C29] had an IC50 of 118 nM.

The next assay concerns the target T3, Ba/F3-KIF5B-RET-V804M cells (Homo sapiens, UniProt P07949, V804M).
T3 construct: host or cells: Ba/F3 (BaF3 from RIKEN BRC CELL BANK); the other entry of the earlier key: KIF5B (P33176, Kinesin-1 heavy chain)
T3 sequence (P07949 713-1063 V804M limits assumed): T1 sequence (P07949 713-1063 limits assumed) with V92M
The assay is described as follows: Cell anti-proliferation experiment (CellTiter-Glo), Ba/F3-KIF5B-RET-V804M. It counts as cell-based. Conditions: cell viability, 72 h. The protocol:
as §1, §2, §3, §4, §5, §6
On to `CO[C@]1(C(=O)N[C@@H](C)c2ccc(-n3cc(F)cn3)nc2)CC[C@H](c2nc(Nc3cc(C)[nH]n3)cc3nccnc32)CC1` [Compound C14], for which the IC50 was 109 nM.
Same read-out and setting: to `CO[C@]1(C(=O)N[C@@H](C)c2ccc(-n3cc(F)cn3)nc2)CC[C@H](c2nc(Nc3cc(C)[nH]n3)c3ccccc3n2)CC1` [Compound C15] belongs 7.4 nM; to `CO[C@]1(C(=O)N[C@@H](C)c2ccc(-n3cnc(Cl)n3)nc2)CC[C@H](c2nc(Nc3cc(C)[nH]n3)cc3cccnc32)CC1` [Compound C24], 182 nM.
On the same count and under the same terms, as for `CO[C@]1(C(=O)N[C@@H](C)c2cnc(-n3cc(F)cn3)cn2)CC[C@H](c2nc(Nc3cc(C)[nH]n3)cc3cccnc32)CC1` [Compound C26], the figure is 7.9 nM; as for `CO[C@]1(C(=O)N[C@@H](C)c2ccc(-n3cc(F)cn3)nn2)CC[C@H](c2nc(Nc3cc(C)[nH]n3)cc3cccnc32)CC1` [Compound C27], 51.9 nM; as for `CO[C@]1(C(=O)N[C@@H](C)c2ccc(-n3cnc(C)n3)nc2)CC[C@H](c2nc(Nc3cc(C)[nH]n3)cc3cccnc32)CC1` [Compound C29], 252 nM.
